We go through 6 molecules from DBAASP.

In brackets after ≈: the same amount, converted by molar mass. A value given as a limit tells only on which side of the number the result lay.

By MIC is commonly meant the smallest concentration in the dilution series that meets the test's criterion for growth inhibition. Low values mean inhibition by little substance, high ones a need for much substance.

What all share (experiment): ≥ marks a high value that may be exact or a test limit, other limits are often not marked, values filed in µg/mL are converted to µM
Assay [1] concerns Bacillus subtilis KCTC 3068.
Assay [2] has as its system Escherichia coli KCTC 1682.
Assay [3] has as its system Pseudomonas aeruginosa KCTC 1637.
The test system of assay [4] is Salmonella typhimurium KCTC 1926.
Assay [5] relates to Staphylococcus aureus KCTC 1621.
The subject of assay [6] is Staphylococcus epidermidis KCTC 1917.
Assay [7] relates to Pseudomonas aeruginosa ATCC 9027.
Assay [8] deals with Staphylococcus aureus ATCC 6538.

For `CC[C@H](C)[C@H](N)C(=O)N[C@@H](CC(C)C)C(=O)N1CCC[C@H]1C(=O)N[C@@H](Cc1c[nH]c2ccccc12)C(=O)N[C@@H](CCCCN)C(=O)N[C@@H](CCCCN)C(=O)N1CCC[C@H]1C(=O)N[C@@H](CCCCN)C(=O)N[C@@H](CCCCN)C(=O)N1CCC[C@H]1C(=O)N[C@@H](CCCCN)C(=O)N[C@@H](CCCN=C(N)N)C(=O)N[C@@H](CCCN=C(N)N)C(N)=O` [ILPWKKPKKPKRR], the MIC was 5.97 µM (≈ 9.99 µg/mL) in assay [1]; 5.97 µM (≈ 9.99 µg/mL) in assay [2]; 5.97 µM (≈ 9.99 µg/mL) in assay [3]; 2.98 µM (≈ 5 µg/mL) in assay [4]; 5.97 µM (≈ 9.99 µg/mL) in assay [5]; 2.98 µM (≈ 5 µg/mL) in assay [6].
On to `CC[C@H](C)[C@H](N)C(=O)N[C@@H](CC(C)C)C(=O)N1CCC[C@H]1C(=O)N[C@@H](Cc1c[nH]c2ccccc12)C(=O)N[C@@H](CCCCN)C(=O)N[C@@H](Cc1c[nH]c2ccccc12)C(=O)N1CCC[C@H]1C(=O)N[C@@H](CCCCN)C(=O)N[C@@H](Cc1c[nH]c2ccccc12)C(=O)N1CCC[C@H]1C(=O)N[C@@H](Cc1c[nH]c2ccccc12)C(=O)N[C@@H](CCCN=C(N)N)C(=O)N[C@@H](CCCN=C(N)N)C(N)=O` [ILPWKWPKWPWRR], for which the MIC in assay [1] was determined as 5.41 µM (≈ 9.99 µg/mL); in assay [2], 2.7 µM (≈ 5 µg/mL); in assay [3] it was 10.8 µM (≈ 20 µg/mL); in assay [4] it was 2.7 µM (≈ 5 µg/mL); in assay [5], 2.7 µM (≈ 5 µg/mL); in assay [6], 2.7 µM (≈ 5 µg/mL).
Turning to `CC[C@H](C)[C@H](NC(=O)[C@H](C)NC(=O)[C@H](CCCN=C(N)N)NC(=O)[C@@H]1CCCN1C(=O)[C@H](CC(C)C)NC(=O)[C@H](CC(N)=O)NC(=O)[C@H](Cc1ccc(O)cc1)NC(=O)CNC(=O)[C@H](C)NC(=O)[C@@H](NC(=O)[C@@H](NC(=O)[C@@H](NC(=O)[C@H](CCCN=C(N)N)NC(=O)[C@@H](NC(=O)[C@@H](NC(=O)[C@H](CC(C)C)NC(=O)[C@H](Cc1ccc(O)cc1)NC(=O)[C@H](Cc1c[nH]c2ccccc12)NC(=O)[C@@H](NC(=O)[C@H](CCCN=C(N)N)NC(=O)[C@H](CCCCN)NC(=O)[C@@H](NC(=O)[C@@H](N)CCCN=C(N)N)C(C)C)C(C)C)C(C)C)[C@@H](C)CC)[C@@H](C)O)C(C)C)[C@@H](C)CC)C(=O)N[C@@H](CCCCN)C(=O)N[C@@H](CCCCN)C(=O)N[C@@H](CCCCN)C(=O)O` [RVKRVWYLVIRTVIAGYNLPRAIKKK], the MIC in assay [1] is 8 µM (≈ 25.1 µg/mL); in assay [2], 4 µM (≈ 12.6 µg/mL); in assay [3], 8 µM (≈ 25.1 µg/mL); in assay [4], 8 µM (≈ 25.1 µg/mL); in assay [5] it was 8 µM (≈ 25.1 µg/mL); in assay [6], 8 µM (≈ 25.1 µg/mL).
As to `CC(C)C[C@H](NC(=O)[C@H](C)NC(=O)[C@H](Cc1c[nH]c2ccccc12)NC(=O)[C@H](CCCCN)NC(=O)[C@H](CC(N)=O)NC(=O)[C@H](Cc1c[nH]c2ccccc12)NC(=O)[C@H](CCCCN)NC(=O)[C@H](CCCCN)NC(=O)[C@H](CCCN=C(N)N)NC(=O)[C@@H](N)Cc1ccccc1)C(=O)N[C@@H](CO)C(=O)N[C@@H](CCCN=C(N)N)C(N)=O` [FRKKWNKWALSR], the MIC in assay [1] stood at 8 µM (≈ 13 µg/mL); in assay [2] it was 4 µM (≈ 6.48 µg/mL); in assay [3], 16 µM (≈ 25.9 µg/mL); in assay [4] it was 4 µM (≈ 6.48 µg/mL); in assay [5] it was 16 µM (≈ 25.9 µg/mL); in assay [6], 8 µM (≈ 13 µg/mL).
With `CC(C)C[C@H](NC(=O)[C@H](CC(C)C)NC(=O)[C@H](CCCCN)NC(=O)[C@H](CCCCN)NC(=O)[C@H](C)NC(=O)[C@H](CC(C)C)NC(=O)[C@H](CCCCN)NC(=O)[C@H](C)NC(=O)[C@@H](N)Cc1ccccc1)C(N)=O` [FAKLAKKLL], the minimal inhibitory concentration (MIC) in assay [7] came to 97 µM (≈ 99.9 µg/mL); in assay [8], 194 µM (≈ 200 µg/mL).
Turning to `CC[C@H](C)[C@H](N)C(=O)N[C@@H](CC(C)C)C(=O)NCC(=O)N[C@@H](CCCCN)C(=O)N[C@H](C(=O)N[C@@H](C)C(=O)N[C@@H](CCC(=O)O)C(=O)NCC(=O)N[C@H](C(=O)N[C@@H](CCCCN)C(=O)N[C@@H](CO)C(=O)N[C@@H](CC(C)C)C(=O)N[C@@H](Cc1ccccc1)C(N)=O)[C@@H](C)CC)[C@@H](C)CC` [ILGKIAEGIKSLF], the MIC is at least 64 µM in assay [2]; at least 32 µM in assay [3]; at least 64 µM in assay [4]; at least 64 µM in assay [5]; at least 64 µM in assay [6].
